According to patent US20160010086A1, “OLIGOMERIC COMPOUNDS AND EXCIPIENTS” (ISIS PHARMACEUTICALS, INC., priority 2009, published 2016):

Columns and labels:
PTEN mRNA = test: Antisense activity (pharmacodynamics) of ISIS 116847 in mouse liver; assay type: in vivo, mice
Procedure: Tissues are homogenized in guanidine isothyocyanate buffer (4 M guanidine isothiocyanate, 25 mM EDTA, 1 M β-mercaptoethanol, 50 mM Tris-HCl, pH 6) immediately following sacrifice. RNA is extracted using RNeasy columns (Qiagen) according to manufacturer's protocol. RNA is eluted from the columns with water. RNA samples are analyzed by fluorescence-based quantitative RT-PCR using an Applied Biosystems 7700 sequence detector. Levels of target RNAs as well as those of cyclophilin A, a housekeeping gene, are determined. Target RNA levels were normalized to cyclophilin levels for each RNA sample. Primers used for determination of PTEN RNA level are as follows: FP 5′ […] 3′ (SEQ ID NO: 3), RP 5′ […] 3′ (SEQ ID NO: 4), and PR 5′ 6FAM-[…]-TAMRA 3′(SEQ ID NO 5). Primers used for determination of cyclophilin A RNA level are as follows: FP 5′ TCGCCGCTTGCTGCA 3′(SEQ ID NO: 6), RP 5′ ATCGGCCGTGATGTCGA 3′(SEQ ID NO: 7), and PR 5′ 6FAM-[…]-TAMRA 3′(SEQ ID NO: 8).

[1] = mouse, in vivo

In the case of “5′-CTGCT agcctctgga TTTGA-3′ (CTGCTAGCCTCTGGATTTGA; chemistry not given here) [ISIS 116847]”, the “activity of the active antisense oligonucleotide” value (PTEN mRNA; co-administered with a nonsense oligonucleotide) is reported as “enhanced”, the “pharmacodynamics with increased liver drug concentration” value (PTEN mRNA; slower infusion, lowest doses) is reported as “did not provide improved pharmacodynamics” and the “uptake in whole liver” value [1] is reported as “favored at lower plasma concentrations”.
